Measured values reported in patent US8729089B2 (Gilead Sciences, Inc., priority 2006, dated 2014).

Experiments:
[1] = system: HCV replicon in human hepatoma Huh-7 cell line; assay: Anti-HCV replicon assay (EC50, luciferase); format: cell-based; conditions: Hepatitis C virus, Huh-7, 72 h
Protocol: (§1) The anti-HCV activity of the pyrido[3,2-d]pyrimidine derivatives of this invention was tested in a human hepatoma Huh-7 cell line harboring a HCV replicon. The assay comprised the following steps:
(§2) Step 1: Compound Preparation and Serial Dilution
(§3) • 1. for water soluble pyrido[3,2-d]pyrimidine derivatives, a volume of 500 μL of solution in cell media (DMEM, 10% FBS, P/S, L-Glutamine) was prepared with a concentration being twice the concentration of the starting final serial dilution concentration. A volume of 150 μL of the solution was added to the pre-specified wells in column 1 of a 96-well cell culture plate (PerkinElmer, white plate, cat. #6005181, for EC50 assay; black plate, cat. #6005182 for CC50 assay). The rest of the plate, columns 2-12, was filled with 100 μL of cell media. The plate was then placed on a Precision 2000 Workstation to start the serial dilution. Compounds were diluted three times each step from column 1 to column 10. Column 11 was used as a blank control (no compound added). • 2. for pyrido[3,2-d]pyrimidine derivatives requiring DMSO to dissolve, serial dilution is performed in 50% DMSO in a 384-well plate. A solution containing a compound at 100-fold concentration of the starting final serial dilution concentration was prepared in 50% DMSO and added to the pre-specified wells in column 1 of a polypropylene 384-well plate. The plate was then placed on a Precision 2000 Workstation to start the serial dilution. After the serial dilution, a volume of 2 μL of the solution was transferred from the 384-well plate to a 96-well cell culture plate containing 100 μL of cell media on a Biomek FX Workstation. The DMSO concentration in the final assay condition was 0.5% after cells are added to the plate and the total volume in each well is brought to 200 μL.
(§4) Step 2: to each well of the serial dilution plate prepared above, 100 μL of cell media containing 6000 suspended Huh-7 HCV replicon cells was added with a Multidrop workstation. The plates were incubated for 3 days at 37° C. with 5% CO2.
(§5) • a) for the EC50 assay, the media in a 96-well cell culture plate was aspirated with a Biotek EL405 plate-washer. A volume of 200 μL of a solution containing a 1:1 mixture of cell-lysis buffer (Promega, Luciferase Cell Culture Lysis 5× Reagent, cat. #E1531) and luciferase substrate solution (Promega, Luciferase Assay, cat.#E4550) was added to each well of the plate with Multidrop. The plate was incubated for 30 minutes at room temperature before the luminescence signal was measured with a TopCount plate-reader. • b) for the CC50 assay, a volume of 100 μL of pre-mixed CellTiter-Glo (Promega, cat.#G7572) solution is added directly to the cell culture in each well of the plate and the luminescence signal is measured with a TopCount plate-reader after 10 minutes of incubation at room temperature.

[2] = CC50 assay (CellTiter-Glo) in Huh-7 HCV replicon cells; format: cell-based, human; conditions: human, 3 days incubation, CellTiter-Glo readout
Protocol: as §1, §2, §3, §4, §5

Row | Structure (SMILES) | EC50 [1] [µM] | CC50 at 3 days [2] [µM]
1 | Fc1ccc(-c2ccc3nc(NCC(F)(F)F)nc(O[C@H]4CCOC4)c3n2)cc1 [Example 20, [6-(4-Fluoro-phenyl)-4-(tetrahydro-furan-3-yloxy)-pyrido[3,2-d]pyrimidin-2-yl]-(2,2,2-trifluoro-ethyl)-amine] | < 0.1 | > 25
2 | CCOc1nc(NCC(F)(F)F)nc2ccc(-c3ccc(F)cc3)nc12 [Example 21, [4-Ethoxy-6-(4-fluoro-phenyl)-pyrido[3,2-d]pyrimidin-2-yl]-(2,2,2-trifluoro-ethyl)-amine] | < 0.1 | 5 to 25
3 | Fc1ccc(CNc2nc(O[C@H]3CCOC3)c3nc(-c4ccc(F)cc4)ccc3n2)cc1 [Example 23, (4-Fluoro-benzyl)-[6-(4-fluoro-phenyl)-4-(tetrahydro-furan-3-yloxy)-pyrido[3,2-d]pyrimidin-2-yl]amine] | < 0.1 | 5 to 25
4 | NC(=O)CCNc1nc(NCc2ccc(F)cc2)nc2ccc(-c3ccc(F)cc3)nc12 [Example 24, 3-[2-(4-Fluoro-benzylamino)-6-(4-fluoro-phenyl)-pyrido[3,2-d]pyrimidin-4-ylamino]-propionamide] | < 0.1 | 5 to 25
5 | CC(C)(O)CNc1nc(NCc2ccc(F)cc2)nc2ccc(-c3ccc(F)cc3)nc12 [Example 25, 1-[2-(4-Fluoro-benzylamino)-6-(4-fluoro-phenyl)-pyrido[3,2-d]pyrimidin-4-ylamino]-2-methyl-propan-2-ol] | < 0.1 | < 5
6 | COc1nc(NCc2ccc(F)cc2)nc2ccc(-c3ccc(F)cc3)nc12 [Example 26, (4-Fluoro-benzyl)-[6-(4-fluoro-phenyl)-4-methoxy-pyrido[3,2-d]pyrimidin-2-yl]-amine] | < 0.1 | > 25
7 | CS(=O)(=O)C1CCN(c2nc(NCc3ccc(F)cc3)nc3ccc(-c4ccc(F)cc4)nc23)C1 (centres unmarked) [Example 27, (4-Fluoro-benzyl)-[6-(4-fluoro-phenyl)-4-(3-methanesulfonyl-pyrrolidin-1-yl)-pyrido[3,2-d]pyrimidin-2-yl]-amine] | < 0.1 | < 5
8 | CN(CCS(C)(=O)=O)c1nc(NCc2ccc(F)cc2)nc2ccc(-c3ccc(F)cc3)nc12 [Example 28, N2-(4-Fluoro-benzyl)-6-(4-fluoro-phenyl)-N4-(2-methanesulfonyl-ethyl)-N4-methyl-pyrido[3,2-d]pyrimidine-2,4-diamine] | < 0.1 | > 25
9 | CC(C)N1CCC(Nc2nc(NCc3ccc(F)cc3)nc3ccc(-c4ccc(F)cc4)nc23)CC1 [Example 29, N2-(4-Fluoro-benzyl)-6-(4-fluoro-phenyl)-N4-(1-isopropyl-piperidin-4-yl)-pyrido[3,2-d]pyrimidine-2,4-diamine] | < 0.1 | < 5
10 | CCNc1nc(NCc2ccc(F)cc2)nc2ccc(-c3ccc(F)cc3)nc12 [Example 30, N4-Ethyl-N2-(4-fluoro-benzyl)-6-(4-fluoro-phenyl)-pyrido[3,2-d]pyrimidine-2,4-diamine] | < 0.1 | 5 to 25
11 | Fc1ccc(CNc2nc(NCc3cccnc3)c3nc(-c4ccc(F)cc4)ccc3n2)cc1 [Example 31, N2-(4-Fluoro-benzyl)-6-(4-fluoro-phenyl)-N4-pyridin-3-ylmethyl-pyrido[3,2-d]pyrimidine-2,4-diamine] | < 0.1 | 5 to 25
12 | Fc1ccc(CNc2nc(NCCN3CCOCC3)c3nc(-c4ccc(F)cc4)ccc3n2)cc1 [Example 32, N2-(4-Fluoro-benzyl)-6-(4-fluoro-phenyl)-N4-(2-morpholin-4-yl-ethyl)-pyrido[3,2-d]pyrimidine-2,4-diamine] | < 0.1 | 5 to 25
13 | Fc1ccc(CNc2nc(NCC(F)(F)F)c3nc(-c4ccc(F)cc4)ccc3n2)cc1 [Example 33, N2-(4-Fluoro-benzyl)-6-(4-fluoro-phenyl)-N4-(2,2,2-trifluoro-ethyl)-pyrido[3,2-d]pyrimidine-2,4-diamine] | < 0.1 | 5 to 25
14 | COCCNc1nc(NCc2ccc(F)cc2)nc2ccc(-c3ccc(F)cc3)nc12 [Example 34, N2-(4-Fluoro-benzyl)-6-(4-fluoro-phenyl)-N4-(2-methoxy-ethyl)-pyrido[3,2-d]pyrimidine-2,4-diamine] | < 0.1 | < 5
15 | CCOc1nc(NCc2ccc(F)c(F)c2)nc2ccc(-c3ccc(F)cc3)nc12 [Example 35, (3,4-Difluoro-benzyl)-[4-ethoxy-6-(4-fluoro-phenyl)-pyrido[3,2-d]pyrimidin-2-yl]-amine] | < 0.1 | 5 to 25
16 | CCOc1nc(NCc2c(F)cc(OC)cc2F)nc2ccc(-c3ccc(F)cc3)nc12 [Example 36, (2,6-Difluoro-4-methoxy-benzyl)-[4-ethoxy-6-(4-fluoro-phenyl)-pyrido[3,2-d]pyrimidin-2-yl]-amine] | < 0.1 | 5 to 25
17 | CCOc1nc(NCc2c(F)cc(Cl)cc2F)nc2ccc(-c3ccc(F)cc3)nc12 [Example 37, (4-Chloro-2,6-difluoro-benzyl)-[4-ethoxy-6-(4-fluoro-phenyl)-pyrido[3,2-d]pyrimidin-2-yl]-amine] | < 0.1 | 5 to 25
18 | CCOc1nc(NCc2ccc(Cl)cc2F)nc2ccc(-c3ccc(F)cc3)nc12 [Example 38, (4-Chloro-2-fluoro-benzyl)-[4-ethoxy-6-(4-fluoro-phenyl)-pyrido[3,2-d]pyrimidin-2-yl]-amine] | < 0.1 | 5 to 25
19 | CCOc1nc(NCc2c(F)cc(F)cc2F)nc2ccc(-c3ccc(F)cc3)nc12 [Example 39, (4-Ethoxy-6-(4-fluoro-phenyl)-pyrido[3,2-d]pyrimidin-2-yl]-(2,4,6-trifluoro-benzyl)-amine] | < 0.1 | 5 to 25
20 | CCOc1nc(NCc2ccc(Cl)c(F)c2)nc2ccc(-c3ccc(F)cc3)nc12 [Example 40, (4-Chloro-3-fluoro-benzyl)-[4-ethoxy-6-(4-fluoro-phenyl)-pyrido[3,2-d]pyrimidin-2-yl]-amine] | < 0.1 | 5 to 25
21 | CCOc1nc(NCc2ccc(F)c(F)c2F)nc2ccc(-c3ccc(F)cc3)nc12 [Example 41, [4-Ethoxy-6-(4-fluoro-phenyl)-pyrido[3,2-d]pyrimidin-2-yl]-(2,3,4-trifluoro-benzyl)-amine] | < 0.1 | 5 to 25
22 | CCOc1nc(NCc2ccc(F)c(Cl)c2)nc2ccc(-c3ccc(F)cc3)nc12 [Example 42, (3-Chloro-4-fluoro-benzyl)-[4-ethoxy-6-(4-fluoro-phenyl)-pyrido[3,2-d]pyrimidin-2-yl]-amine] | < 0.1 | 5 to 25
23 | CCOc1nc(NCc2ccc(F)cc2Cl)nc2ccc(-c3ccc(F)cc3)nc12 [Example 43, (2-Chloro-4-fluoro-benzyl)-[4-ethoxy-6-(4-fluoro-phenyl)-pyrido[3,2-d]pyrimidin-2-yl]-amine] | < 0.1 | > 25
24 | CCOc1nc(NCc2ccc(C(F)(F)F)c(F)c2)nc2ccc(-c3ccc(F)cc3)nc12 [Example 44, [4-Ethoxy-6-(4-fluoro-phenyl)-pyrido[3,2-d]pyrimidin-2-yl]-(3-fluoro-4-trifluoromethyl-benzyl)-amine] | < 0.1 | 5 to 25
25 | CCOc1nc(NCc2cc(F)cc(F)c2)nc2ccc(-c3ccc(F)cc3)nc12 [Example 45, (3,5-Difluoro-benzyl)-[4-ethoxy-6-(4-fluoro-phenyl)-pyrido[3,2-d]pyrimidin-2-yl]-amine] | < 0.1 | 5 to 25
26 | CCOc1nc(NCc2cc(F)c(F)c(F)c2)nc2ccc(-c3ccc(F)cc3)nc12 [Example 46, [4-Ethoxy-6-(4-fluoro-phenyl)-pyrido[3,2-d]pyrimidin-2-yl]-(3,4,5-trifluoro-benzyl)-amine] | < 0.1 | 5 to 25
27 | CCOc1nc(NCc2cccc(F)c2)nc2ccc(-c3ccc(F)cc3)nc12 [Example 47, [4-Ethoxy-6-(4-fluoro-phenyl)-pyrido[3,2-d]pyrimidin-2-yl]-(3-fluoro-benzyl)-amine] | < 0.1 | 5 to 25
28 | CCOc1nc(NCc2cccc(Cl)c2F)nc2ccc(-c3ccc(F)cc3)nc12 [Example 48, (3-Chloro-2-fluoro-benzyl)-[4-ethoxy-6-(4-fluoro-phenyl)-pyrido[3,2-d]pyrimidin-2-yl]-amine] | < 0.1 | > 25
